Publication PMC5491371 (Clinical cancer research : an official journal of the …, 2016)

Molecular target: T1, ITK (Homo sapiens, UniProt Q08881)
T1 sequence (Q08881 1-620): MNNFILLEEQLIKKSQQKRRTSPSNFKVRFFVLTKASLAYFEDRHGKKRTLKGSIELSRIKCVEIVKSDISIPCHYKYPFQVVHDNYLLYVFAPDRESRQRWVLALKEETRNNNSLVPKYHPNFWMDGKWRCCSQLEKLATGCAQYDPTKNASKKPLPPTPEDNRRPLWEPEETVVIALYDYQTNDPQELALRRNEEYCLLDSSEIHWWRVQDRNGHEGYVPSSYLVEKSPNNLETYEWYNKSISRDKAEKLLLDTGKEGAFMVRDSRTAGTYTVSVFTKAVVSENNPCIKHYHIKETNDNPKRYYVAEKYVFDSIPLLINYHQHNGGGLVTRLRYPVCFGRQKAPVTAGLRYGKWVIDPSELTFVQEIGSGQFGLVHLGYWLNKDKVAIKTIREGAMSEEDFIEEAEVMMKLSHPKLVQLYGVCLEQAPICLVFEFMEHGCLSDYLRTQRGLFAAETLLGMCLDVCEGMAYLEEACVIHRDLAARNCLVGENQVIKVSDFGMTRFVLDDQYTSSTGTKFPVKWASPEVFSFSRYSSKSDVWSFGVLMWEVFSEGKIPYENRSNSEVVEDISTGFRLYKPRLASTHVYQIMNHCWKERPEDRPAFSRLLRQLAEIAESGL
Assay type: cell-based
Settings: Jurkat, read-out: % inhibition at 1 μM

`C=CC(=O)N1CCC[C@@H](n2nc(-c3ccc(Oc4ccccc4)cc3)c3c(N)ncnc32)C1` [ibrutinib] was tested, and the inhibition at 1 µM was over 90%.
